# Legend:
# [1] = Biodistribution studies in NMRI mice; assay type: in vivo; conditions: i.v.; for Percentage of ID, blood: blood mass assumed 7% of body mass
# Method: The biodistribution studies were performed in wild-type NMRI mice with body weights ranging from 30 to 40 g. Mice were intravenously injected with 0.1 MBq of ^18F]-(3) or ^18F]-(5) and 5.5 MBq of ^11C]-(4) or ^11C]-(6) under anesthesia (2% isoflurane in O2 at a flow rate of 1 L/min). The animals were killed by decapitation at 2 min or 60 min p.i. (n = 4/time point for ^18F]-(3), ^11C]-(4), and ^11C]-(6); n = 6 for ^18F]-(5)). Blood was collected, and all major organs were dissected and collected in tarred tubes and were weighed. The radioactivity in each organ was counted using an automated gamma counter, corrected for background radioactivity and expressed as follows: percentage of the injected dose (% ID) or as standardized uptake value (SUV) (SUV = (Counts in tissue per gram of tissue) / (Injected counts per total body mass (g)). For the calculation of total radioactivity in the blood, blood mass was assumed to be 7% of the body mass.
# [2] = Dynamic micro-PET scan in rats; assay type: in vivo, Wistar rat
# Method: PET images were acquired on a FOCUS 220 tomograph (Siemens/Concorde Microsystems, Knoxville, TN, USA). During all scan sessions, rats were anesthetized (2.5% isoflurane in O2 at a flow rate of 1 L/min) and scanned in prone position. [^18F]-(5) (37 MBq) was administered via the tail vein, and a 1-h dynamic scan was acquired. The images were acquired in list mode and binned in sinograms using a 21-dynamic frame protocol (4 × 15, 4 × 60, 5 × 180, 8 × 300 s). Reconstruction was performed with the Focus 220 software (using Fourier rebinning, followed by two-dimensional (2D) OSEM algorithm), and data were analyzed using PMOD (version 2.65; PMOD, Zurich, Switzerland). The radioactivity concentration in the heart region was expressed as SUVs as a function of time after injection of the radiotracer.
structure (smiles),measurement,setting,value
"[11CH3]Oc1ccc(C(=O)NCCc2ccc(S(N)(=O)=O)cc2)cc1 [[^11C]-(4), 4-[^11C]methoxybenzoyl aminoethylbenzenesulfonamide]","Percentage of ID, brain",[1]; 2 min p.i.,0.2 ± 0.0 % ID
same,"Percentage of ID, carcass",[1]; 2 min p.i.,17.6 ± 1.5 % ID
same,"Percentage of ID, heart",[1]; 2 min p.i.,0.5 ± 0.1 % ID
same,"Percentage of ID, intestines",[1]; 2 min p.i.,3.6 ± 1.3 % ID
same,"Percentage of ID, kidneys",[1]; 2 min p.i.,8.1 ± 1.3 % ID
same,"Percentage of ID, liver",[1]; 2 min p.i.,8.4 ± 0.7 % ID
same,"Percentage of ID, lungs",[1]; 2 min p.i.,4.9 ± 2.5 % ID
same,"Percentage of ID, spleen + pancreas",[1]; 2 min p.i.,0.6 ± 0.1 % ID
same,"Percentage of ID, stomach",[1]; 2 min p.i.,0.7 ± 0.1 % ID
same,"Percentage of ID, urine",[1]; 2 min p.i.,0.4 ± 0.1 % ID
same,"SUV, blood",[1]; 2 min p.i.,12.9 ± 0.8
same,"SUV, brain",[1]; 2 min p.i.,0.2 ± 0.0
same,"SUV, heart",[1]; 2 min p.i.,1.2 ± 0.2
same,"SUV, kidneys",[1]; 2 min p.i.,4.3 ± 0.7
same,"SUV, liver",[1]; 2 min p.i.,1.5 ± 0.2
same,"SUV, lungs",[1]; 2 min p.i.,6.0 ± 1.6
same,"SUV, spleen",[1]; 2 min p.i.,0.9 ± 0.1
same,"Percentage of ID, blood",[1]; 2 min p.i.,90.5 ± 5.9 % ID
same,"Percentage of ID, brain",[1]; 60 min p.i.,0.3 ± 0.0 % ID
same,"Percentage of ID, carcass",[1]; 60 min p.i.,21.2 ± 2.8 % ID
same,"Percentage of ID, heart",[1]; 60 min p.i.,0.5 ± 0.1 % ID
same,"Percentage of ID, intestines",[1]; 60 min p.i.,12.4 ± 0.8 % ID
same,"Percentage of ID, kidneys",[1]; 60 min p.i.,4.1 ± 0.3 % ID
same,"Percentage of ID, liver",[1]; 60 min p.i.,9.2 ± 1.1 % ID
same,"Percentage of ID, lungs",[1]; 60 min p.i.,4.2 ± 1.1 % ID
same,"Percentage of ID, spleen + pancreas",[1]; 60 min p.i.,0.8 ± 0.1 % ID
same,"Percentage of ID, stomach",[1]; 60 min p.i.,2.6 ± 0.3 % ID
same,"Percentage of ID, urine",[1]; 60 min p.i.,4.4 ± 2.7 % ID
same,"SUV, blood",[1]; 60 min p.i.,10.4 ± 1.1
same,"SUV, brain",[1]; 60 min p.i.,0.2 ± 0.0
same,"SUV, heart",[1]; 60 min p.i.,1.0 ± 0.3
same,"SUV, kidneys",[1]; 60 min p.i.,2.5 ± 0.2
same,"SUV, liver",[1]; 60 min p.i.,1.9 ± 0.3
same,"SUV, lungs",[1]; 60 min p.i.,4.7 ± 0.7
same,"SUV, spleen",[1]; 60 min p.i.,1.1 ± 0.2
same,"Percentage of ID, blood",[1]; 60 min p.i.,72.5 ± 7.6 % ID
"[11CH3]Oc1ccc(S(N)(=O)=O)cc1 [[^11C]-(6), 4-[^11C]methoxybenzene sulfonamide]","Percentage of ID, brain",[1]; 2 min p.i.,0.7 ± 0.1 % ID
same,"Percentage of ID, carcass",[1]; 2 min p.i.,28.4 ± 2.0 % ID
same,"Percentage of ID, heart",[1]; 2 min p.i.,0.7 ± 0.2 % ID
same,"Percentage of ID, intestines",[1]; 2 min p.i.,5.2 ± 0.9 % ID
same,"Percentage of ID, kidneys",[1]; 2 min p.i.,3.7 ± 0.1 % ID
same,"Percentage of ID, liver",[1]; 2 min p.i.,6.9 ± 0.4 % ID
same,"Percentage of ID, lungs",[1]; 2 min p.i.,6.3 ± 2.7 % ID
same,"Percentage of ID, spleen + pancreas",[1]; 2 min p.i.,1.2 ± 0.1 % ID
same,"Percentage of ID, stomach",[1]; 2 min p.i.,1.5 ± 0.3 % ID
same,"Percentage of ID, urine",[1]; 2 min p.i.,0.3 ± 0.1 % ID
same,"SUV, blood",[1]; 2 min p.i.,11.9 ± 1.1
same,"SUV, brain",[1]; 2 min p.i.,0.7 ± 0.1
same,"SUV, heart",[1]; 2 min p.i.,1.6 ± 0.4
same,"SUV, kidneys",[1]; 2 min p.i.,2.4 ± 0.3
same,"SUV, liver",[1]; 2 min p.i.,1.5 ± 0.1
same,"SUV, lungs",[1]; 2 min p.i.,6.2 ± 2.1
same,"SUV, spleen",[1]; 2 min p.i.,1.9 ± 0.8
same,"Percentage of ID, blood",[1]; 2 min p.i.,83.4 ± 7.7 % ID
same,"Percentage of ID, brain",[1]; 60 min p.i.,1.5 ± 0.1 % ID
same,"Percentage of ID, carcass",[1]; 60 min p.i.,26.1 ± 1.0 % ID
same,"Percentage of ID, heart",[1]; 60 min p.i.,0.4 ± 0.1 % ID
same,"Percentage of ID, intestines",[1]; 60 min p.i.,19.3 ± 1.0 % ID
same,"Percentage of ID, kidneys",[1]; 60 min p.i.,4.1 ± 0.6 % ID
same,"Percentage of ID, liver",[1]; 60 min p.i.,6.1 ± 0.5 % ID
same,"Percentage of ID, lungs",[1]; 60 min p.i.,3.1 ± 1.4 % ID
same,"Percentage of ID, spleen + pancreas",[1]; 60 min p.i.,2.3 ± 0.6 % ID
same,"Percentage of ID, stomach",[1]; 60 min p.i.,2.4 ± 0.2 % ID
same,"Percentage of ID, urine",[1]; 60 min p.i.,4.8 ± 0.3 % ID
same,"SUV, blood",[1]; 60 min p.i.,7.1 ± 0.7
same,"SUV, brain",[1]; 60 min p.i.,1.1 ± 0.1
same,"SUV, heart",[1]; 60 min p.i.,0.9 ± 0.1
same,"SUV, kidneys",[1]; 60 min p.i.,2.4 ± 0.2
same,"SUV, liver",[1]; 60 min p.i.,1.4 ± 0.2
same,"SUV, lungs",[1]; 60 min p.i.,3.5 ± 1.1
same,"SUV, spleen",[1]; 60 min p.i.,2.4 ± 0.4
same,"Percentage of ID, blood",[1]; 60 min p.i.,49.7 ± 4.8 % ID
"NS(=O)(=O)c1ccc(OCC[18F])cc1 [[^18F]-(5), 4-(2-[^18F]fluoroethoxy)benzenesulfonamide]",Average SUV ratio heart-to-kidney,[2]; micro-PET,2.5
same,Average SUV ratio heart-to-liver,[2]; micro-PET,4
same,Average SUV ratio heart-to-spleen,[2]; micro-PET,2.3
same,Bone uptake (in vivo defluorination),[2]; micro-PET,no bone uptake was observed
same,Heart region SUV at 60 min relative to the 2-min value,[2]; micro-PET,75%
same,"SUV, heart","[2]; micro-PET time activity curves, 37 MBq i.v.",2.5
same,"Percentage of ID, brain",[1]; 2 min p.i.,0.3 ± 0.0 % ID
same,"Percentage of ID, carcass",[1]; 2 min p.i.,18.8 ± 1.6 % ID
same,"Percentage of ID, heart",[1]; 2 min p.i.,0.6 ± 0.1 % ID
same,"Percentage of ID, intestines",[1]; 2 min p.i.,2.9 ± 0.4 % ID
same,"Percentage of ID, kidneys",[1]; 2 min p.i.,4.1 ± 0.8 % ID
same,"Percentage of ID, liver",[1]; 2 min p.i.,6.0 ± 1.1 % ID
same,"Percentage of ID, lungs",[1]; 2 min p.i.,7.3 ± 3.9 % ID
same,"Percentage of ID, spleen + pancreas",[1]; 2 min p.i.,1.1 ± 0.1 % ID
same,"Percentage of ID, stomach",[1]; 2 min p.i.,0.8 ± 0.2 % ID
same,"Percentage of ID, urine",[1]; 2 min p.i.,0.3 ± 0.1 % ID
same,"SUV, blood",[1]; 2 min p.i.,17.3 ± 2.5
same,"SUV, brain",[1]; 2 min p.i.,0.5 ± 0.1
same,"SUV, heart",[1]; 2 min p.i.,1.6 ± 0.4
same,"SUV, kidneys",[1]; 2 min p.i.,3.1 ± 0.6
same,"SUV, liver",[1]; 2 min p.i.,1.4 ± 0.3
same,"SUV, lungs",[1]; 2 min p.i.,9.3 ± 2.9
same,"SUV, spleen",[1]; 2 min p.i.,2.1 ± 0.7
same,"Percentage of ID, blood",[1]; 2 min p.i.,106.3 ± 5.2 % ID
same,"Percentage of ID, brain",[1]; 60 min p.i.,1.0 ± 0.1 % ID
same,"Percentage of ID, carcass",[1]; 60 min p.i.,22.4 ± 1.5 % ID
same,"Percentage of ID, heart",[1]; 60 min p.i.,0.6 ± 0.2 % ID
same,"Percentage of ID, intestines",[1]; 60 min p.i.,9.6 ± 2.8 % ID
same,"Percentage of ID, kidneys",[1]; 60 min p.i.,3.7 ± 1.1 % ID
same,"Percentage of ID, liver",[1]; 60 min p.i.,4.0 ± 0.2 % ID
same,"Percentage of ID, lungs",[1]; 60 min p.i.,1.8 ± 0.6 % ID
same,"Percentage of ID, spleen + pancreas",[1]; 60 min p.i.,0.9 ± 0.4 % ID
same,"Percentage of ID, stomach",[1]; 60 min p.i.,4.2 ± 3.1 % ID
same,"SUV, blood",[1]; 60 min p.i.,11.1 ± 1.2
same,"SUV, brain",[1]; 60 min p.i.,1.4 ± 0.2
same,"SUV, heart",[1]; 60 min p.i.,1.7 ± 0.5
same,"SUV, kidneys",[1]; 60 min p.i.,2.5 ± 0.4
same,"SUV, liver",[1]; 60 min p.i.,1.0 ± 0.1
same,"SUV, lungs",[1]; 60 min p.i.,3.8 ± 0.4
same,"SUV, spleen",[1]; 60 min p.i.,2.2 ± 0.8
same,"Percentage of ID, blood",[1]; 60 min p.i.,71.0 ± 14.5 % ID

# — publication PMC3561128, “Preclinical evaluation of carbon-11 and fluorine-18 sulfonamide derivatives for in vivo radiolabeling of erythrocytes” (EJNMMI Research, 2013)
